Laboratory results reported in PubChem BioAssay (NCI).
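GI50 = concentration required for 50% inhibition of growth. TGI: total growth inhibition.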

What was measured:
Experiment in all cases: NCI-60 cell line screen, 384-well format; in the data active means GI50 below about 0.43 µM; inactive means the rest
[1] = tested on: 786-0 renal
[2] = tested on: A498 renal
[3] = tested on: A549 NSCLC
[4] = tested on: ACHN renal
[5] = tested on: BT-549 breast
[6] = tested on: CAKI-1 renal
[7] = tested on: CCRF-CEM leukemia
[8] = tested on: COLO 205 colon
[9] = tested on: DU-145 prostate
[10] = tested on: EKVX NSCLC
[11] = tested on: HCC-2998 colon
[12] = tested on: HCT-116 colon
[13] = tested on: HCT-15 colon
[14] = tested on: HL-60(TB) leukemia
[15] = tested on: HOP-62 NSCLC
[16] = tested on: HOP-92 NSCLC
[17] = tested on: HS 578T breast
[18] = tested on: HT29 colon
[19] = tested on: IGROV1 ovarian
[20] = tested on: K-562 leukemia
[21] = tested on: KM12 colon
[22] = tested on: LOX IMVI melanoma
[23] = tested on: MALME-3M melanoma
[24] = tested on: MCF7 breast
[25] = tested on: MDA-MB-231 breast
[26] = tested on: MDA-MB-435 melanoma
[27] = tested on: MDA-MB-468 breast
[28] = tested on: MOLT-4 leukemia
[29] = tested on: NCI-H226 lung
[30] = tested on: NCI-H322M lung
[31] = tested on: NCI-H460 NSCLC
[32] = tested on: NCI-H522 lung
[33] = tested on: NCI/ADR-RES ovarian
[34] = tested on: OVCAR-3 ovarian
[35] = tested on: OVCAR-4 ovarian
[36] = tested on: OVCAR-5 ovarian
[37] = tested on: OVCAR-8 ovarian
[38] = tested on: PC-3 prostate
[39] = tested on: RPMI-8226 leukemia
[40] = tested on: RXF 393 renal
[41] = tested on: SF-268 CNS
[42] = tested on: SF-295 CNS
[43] = tested on: SF-539 CNS
[44] = tested on: SK-MEL-2 melanoma
[45] = tested on: SK-MEL-28 melanoma
[46] = tested on: SK-MEL-5 melanoma
[47] = tested on: SK-OV-3 ovarian
[48] = tested on: SN12C renal
[49] = tested on: SNB-19 CNS
[50] = tested on: SNB-75 CNS
[51] = tested on: SR leukemia
[52] = tested on: SW-620 colon
[53] = tested on: T-47D breast
[54] = tested on: TK-10 renal
[55] = tested on: U251 glioblastoma
[56] = tested on: UACC-257 melanoma
[57] = tested on: UACC-62 melanoma
[58] = tested on: UO-31 renal

CCOc1cc(-c2nncn2C)ccc1Nc1ncc2cc(C)nc(NCC(C)(C)C)c2n1
0.587 µM: TGI [14]
> 100 µM: TGI [1] | TGI [2] | TGI [3] | TGI [4] | TGI [5] | TGI [6] | TGI [8] | TGI [9] | TGI [10] | TGI [11] | TGI [12] | TGI [13] | TGI [15] | TGI [16] | TGI [17] | TGI [18] | TGI [19] | TGI [20] | TGI [21] | TGI [22] | TGI [23] | TGI [24] | TGI [25] | TGI [26] | TGI [29] | TGI [30] | TGI [31] | TGI [32] | TGI [33] | TGI [34] | TGI [35] | TGI [36] | TGI [37] | TGI [38] | TGI [41] | TGI [42] | TGI [43] | TGI [44] | TGI [45] | TGI [46] | TGI [47] | TGI [48] | TGI [49] | TGI [50] | TGI [52] | TGI [53] | TGI [54] | TGI [55] | TGI [56] | TGI [57] | TGI [58]
0.0463 µM: TGI [28]
inactive: GI50 [1] 0.468 µM | GI50 [2] 0.548 µM | GI50 [4] 1.77 µM | GI50 [5] 0.85 µM | GI50 [6] > 100 µM | GI50 [10] 2.05 µM | GI50 [11] > 100 µM | GI50 [16] > 100 µM | GI50 [18] > 100 µM | GI50 [19] > 100 µM | GI50 [20] 0.918 µM | GI50 [23] 37.1 µM | GI50 [25] 47.8 µM | GI50 [26] > 100 µM | GI50 [27] 0.578 µM | GI50 [29] 15.9 µM | GI50 [30] > 100 µM | GI50 [32] 0.669 µM | GI50 [33] 0.618 µM | GI50 [34] 0.969 µM | GI50 [35] > 100 µM | GI50 [36] 1.33 µM | GI50 [38] 18 µM | GI50 [40] 1.34 µM | GI50 [41] 10.5 µM | GI50 [42] > 100 µM | GI50 [44] > 100 µM | GI50 [45] > 100 µM | GI50 [46] 0.461 µM | GI50 [47] > 100 µM | GI50 [48] > 100 µM | GI50 [49] 86.7 µM | GI50 [50] > 100 µM | GI50 [53] 7.93 µM | GI50 [54] 3.89 µM | GI50 [55] 0.46 µM | GI50 [56] > 100 µM | GI50 [57] > 100 µM | GI50 [58] 0.514 µM
0.333 µM: TGI [51]
3.77 µM: TGI [39]
7.02 µM: TGI [27]
0.278 µM: TGI [7]
active: GI50 [3] 0.0992 µM | GI50 [7] 0.0772 µM | GI50 [8] 0.196 µM | GI50 [9] 0.365 µM | GI50 [12] 0.062 µM | GI50 [13] 0.0738 µM | GI50 [14] 0.266 µM | GI50 [15] 0.23 µM | GI50 [17] 0.188 µM | GI50 [21] 0.0967 µM | GI50 [22] 0.179 µM | GI50 [28] 0.0223 µM | GI50 [31] 0.169 µM | GI50 [37] 0.377 µM | GI50 [39] 0.3 µM | GI50 [43] 0.351 µM | GI50 [51] 0.139 µM | GI50 [52] 0.304 µM
99.1 µM: TGI [40]
